“Also recorded” adds a separate entry of the source.
Experiments:
[1] = system: delayed type hypersensitivity (DTH) response to DNFB; test: Delayed-type hypersensitivity (DTH) ear swelling, DNFB-primed mice (Experiments 2-3); format: in vivo, C57BL/6J mice
Experimental: (§1) Delayed type hypersensitivity, which involves the participation of T lymphocytes and macrophages, can be studied in vivo by exposing (or priming) a mammal to a novel antigen and then reexposing (or challenging) the primed animal to the same antigen four to seven days later. The classic DTH response includes symptoms of inflammatory response, induration and erythema, which peak at 24 to 48 hours after challenging and then decline slowly.
(§2) Eight-week old female C57BL/6J mice (Jackson Labs) were divided into primed and unprimed groups. The five mice in the primed group were primed to 2,4-dinitrofluorobenzene (DNFB; Sigma Chemical Co., Grade 1, approx. 98%, Lot 129C-0065, No. d-6879) by painting their shaved ventral skins with 0.1 ml of 0.5% DNFB in ethanol:acetone (3:1). The five mice in the unprimed group were shaved and topically painted on their ventral skins with the ethanol:acetone (3:1) vehicle alone. The mice in both groups were challenged with DNFB four days later. A suitable patch of skin, the ear, was chosen for challenging. One ear was designated for challenging and the other to serve as a control. The thickness of each ear across the pinna was measured using micrometer calipers. The first measurements were taken four days after priming and are plotted as day 0 in FIG. 13. Next, each mouse was subjected to the following challenge regimen: one ear was challenged with one drop of 0.35% DNFB in olive oil, and the other (unchallenged control) ear was exposed to olive oil alone. The ear thicknesses (ET) of the challenged ear and the unchallenged ear were measured daily, and the swelling responses are plotted in FIG. 13 as: [formula]
(§3) Three groups of eight-week old female C57BL/6J mice were primed to DNFB as previously described. […] Six hours later the first sets of ear measurements were taken, and one ear of each mouse was challenged.
The data in FIG. 15 is derived from three experiments using C57BL/6J mice. The measurements were taken at the time of maximal swelling, i.e., […] after challenge, and each point represents at least 9 mice.

DTH reaction in ears = test: Histologic examination of DNFB-challenged ear tissue (Experiment 5); format: in vivo, mice
Experimental: FIG. 16 depicts the ear of a primed mouse which has not been challenged with DNFB. The epidermis 22 is devoid of mononuclear infiltrate 28, as is the dermal compartment 24. A layer of cartilage 26 is located in the center of the ear. FIG. 17 represents the ear of a buffer-treated primed mouse which had been challenged 24 hours previously with DNFB. Note the pronounced edema in the dermal compartment of the skin 24 as well as the extensive mononuclear cell infiltrate (indicated by arrows 28) in both the dermis and epidermis. […] There were also fewer mononuclear cells 28 in the epidermis 22 as well.

[2] = system: primary response to sheep red blood cells (SRBC); test: Direct plaque forming cell (PFC) assay, primary response to sheep red blood cells (Experiment 6); format: in vivo, C57BL/6J mice
Experimental: A control group received only the buffer vehicle (carbonate buffer, 0.01M, pH 9.5). Six hours after the first dose, the mice received 0.1 ml of a 20% SRBC solution intraperitoneally. The mice were sacrificed four days later. The spleens were harvested, and the spleen cells were tested in a modified Cunningham plaque assay. Cunningham, A. V., Nature (London) 207:1106 1965.

[3] = system: anti-PHI.X 174 bacteriophage antibodies; test: Phage inhibition assay of serum antibody after immunization with bacteriophage PHI.X 174 (Experiment 7); format: in vivo, mice; conditions: sorbinil daily for five days
From the text: Antibodies generated against the bacteriophage were quantitated by a phage inhibition assay, which is based on the observation that antibodies specific for the bacteriophage will inhibit the ability of the bacteriophage to lyse bacteria. Ochs, H. D., et al., Disorders of the B-cell system, in Immunologic Disorders in Infants and Children, E. R. Stiehm, et al., eds., W. B. Sanders, Co. Philadelphia, p. 239, 1980. The data was expressed as Kv values derived according to the following formula: Rate of phage inactivation, Kv D/T×1n Po/P, where D=reciprocal of antibody dilution, T=60 minutes, Po=initial number of PFU, and P=number of plaques at 60 minutes.
Beginning with one week after this primary immunization mice were bled weekly, and serum samples from individual mice were tested for the ability to inhibit bacteriophage lysis of bacteria.

Mouse P338D cells = test: Release of 3H-arachidonic acid metabolites, A23187-stimulated cells (Experiment 9); format: cell-based; conditions: 10^-6 M/L sorbinil; stimulated by A23187
From the text: The assay protocol was as described generally in Henderson, W. R., and S. J. Klebanoff, J. Biol. Chem. 258: 13522-13527, 1983, which is hereby incorporated by reference.

Human mononuclear cells = test: PMA-stimulated superoxide production (Experiment 11); format: cell-based; conditions: concentrations as high as 10^-5 M/L; PMA stimulated normal cells
From the text: Human mononuclear cells were studied for superoxide production in culture in the presence and absence of sorbinil. Superoxide production was stimulated in normal cells using the mitogen phorbol myristate acetate (PMA).

Mouse peritoneal cells = test: 3H-thymidine incorporation in peritoneal cells, with or without LPS (Experiment 15); format: cell-based; conditions: concentrations as high as 10^-6 M/L; control cells or cells stimulated using LPS
Human monocytes = test: Monocyte adherence in vitro (Experiment 16); format: cell-based; conditions: concentrations as high as 10^-6 M/L
From the text: Human monocytes were isolated and tested for adherence in vitro in the presence and absence of sorbinil.

Human macrophages = test: 3H-thymidine incorporation, LPS-stimulated macrophages (Experiment 17); format: cell-based; conditions: concentrations as high as 10^-5 M/L
Experimental: Human macrophages were stimulated using LPS in vitro, and ^3 H-thymidine incorporation was measured.

[4] = system: thymocytes from normal mice; test: Con A stimulated 3H-thymidine incorporation, thymocytes from normal mice in vitro (Experiment 18); format: cell-based; conditions: concentrations as high as 10^-5 M/L
[5] = system: ear swelling in response to PMA; test: Ear swelling in response to PMA (Experiment 21); conditions: in vivo
[6] = system: delayed-type hypersensitivity (DTH); test: DTH ear swelling, comparison of sorbinil, tolrestat, WF-3681 and NSAIDs (Experiment 23, TABLE 5); format: in vivo, mice
Experimental: as §1, §2, §3
The Table has 4 columns, listing (left to right) each drug tested in column 1, drug concentrations in column 2, relative swelling in column 3, and effectiveness in column 4.

[7] = 11 mg/kg orally daily, four days after SRBC

O=C1NC(=O)[C@@]2(CCOc3ccc(F)cc32)N1 [Sorbinil, 4(S)-2,3-dihydro-6-fluorospiro-(4H-1-benzopyran-4,4'-imidazolidine)-2',5'-dione]
ED100 ([1]; Mus musculus, extrapolation from least squares fit line, FIG. 15, three experiments, time of maximal swelling, i.e., 2 hours after challenge, read-out: Concentration at which maximum inhibition of DTH response (no swelling) would occur): 13.5 mg/kg
Ear swelling (in words) ([1]; sorbinil 10 mg/kg orally): almost complete inhibition of ear swelling
Ear swelling / DTH response (in words) ([1]; sorbinil orally 10, 1.0 or 0.1 mg/kg daily, DNFB-primed and challenged C57BL/6J mice): Swelling was inhibited; also recorded: dose dependent inhibition of ear swelling; also recorded: inhibits the inflammatory response; also recorded: dose dependent inhibition of the delayed-type hypersensitivity response
Edema of dermal compartment (DTH reaction in ears; primed mouse challenged 24 hours previously with DNFB, vs buffer-treated): much less edematous
Mononuclear cell infiltration in challenged ears (DTH reaction in ears; sorbinil-treated vs challenged control mice): infiltration was reduced
Direct plaques [2, 7]: 372±62 plaques per 2×10^5 cells
Increase in spleen cellularity compared to buffer-treated control group [2, 7]: 46%
Increase in the number of direct plaques (IgM antibody secreting cells) compared to buffer control [2, 7]: 94%
PFC on a per spleen basis [2, 7]: 393,000±12,617 PFC/spleen
Spleen cellularity [2, 7]: 2.12±0.26×10^8 cells/spleen
Qualitative appearance of plaques ([2]; spleen cells from sorbinil-treated mice vs buffer control): much smaller, more irregularly shaped, and less distinct
Kv, rate of phage inactivation (serum titer of anti-PHI.X 174 antibodies) ([3]; one week after priming): 5.0±2.4
Kv, rate of phage inactivation (serum titer of anti-PHI.X 174 antibodies) ([3]; two weeks after primary immunization): 18.4±11.4
Release of arachidonic acid metabolites (Mouse P338D cells): no effect
Production of superoxide (Human mononuclear cells): no effect
3H-thymidine incorporation (Mouse peritoneal cells): no significant effect
Adherence of monocytes (Human monocytes): no effect
Incorporation of 3H-thymidine (Human macrophages): no effect
3H-thymidine incorporation stimulated by Con A [4]: no effect
Swelling of mouse ears in response to PMA [5]: no effect
effectiveness (1 - R) (100%) ([6]; 6 μM, single dose after challenge): 39%
effectiveness (1 - R) (100%) ([6]; 6 μM, single dose before challenge): 32%
effectiveness (1 - R) (100%) ([6]; concentration 6 μM): 34%
effectiveness (1 - R) (100%) ([6]; concentration 6 μM, listed as sorbinil): about 30%
effectiveness (1 - R) (100%) ([6]; concentration 10 μM): 70%
Effect on DTH as measured by ear swelling (in words) ([6]; mouse, in vivo): strong and substantially identical inhibitory effect; also recorded: effective, as a single dose, when administered either before or after the antigenic challenge
